Measured values from the supplement of paper PMC6045584.
± gives the standard deviation of the averaged measurements.

Legend:
MDV3100 = compound: CNC(=O)c1ccc(N2C(=S)N(c3ccc(C#N)c(C(F)(F)F)c3)C(=O)C2(C)C)cc1F [MDV3100]; test: surviving fraction relative to DMSO-only wells; higher = less growth inhibition; conditions: exposure time: 5 days
Procedure, shortened: (§1)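 Five days of continuous inhibitor exposure, at 0.5, 1, 5, 10, 50, 100, 500 and 1000 nM, followed a 24-hour period after log-phase tumour cell lines were seeded at 250–500 cells per well in 384-well plates. Surviving fraction was derived from CellTiter-Glo luminescence relative to the median of DMSO-only wells. Plates were read after 10 minutes at room temperature, and lines screened three times were kept only if replicate Pearson r >0.7 and median Z' >0.3.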

BI-2536 = compound: CC[C@@H]1C(=O)N(C)c2cnc(Nc3ccc(C(=O)NC4CCN(C)CC4)cc3OC)nc2N1C1CCCC1 [BI-2536]; test: as above; conditions: exposure time: 5 days
Procedure, shortened: as §1

Test System	surviving fraction (MDV3100; 0.5 nM)	surviving fraction (MDV3100; 1 nM)	surviving fraction (MDV3100; 5 nM)	surviving fraction (MDV3100; 10 nM)	surviving fraction (MDV3100; 50 nM)	surviving fraction (MDV3100; 100 nM)	surviving fraction (MDV3100; 500 nM)	surviving fraction (MDV3100; 1000 nM)	surviving fraction (BI-2536; 0.5 nM)	surviving fraction (BI-2536; 1 nM)	surviving fraction (BI-2536; 5 nM)	surviving fraction (BI-2536; 10 nM)	surviving fraction (BI-2536; 50 nM)	surviving fraction (BI-2536; 100 nM)	surviving fraction (BI-2536; 500 nM)	surviving fraction (BI-2536; 1000 nM)
OSHN BONE	1.04 ± 0.02	1.02 ± 0.019	1.025 ± 0.0047	1.01 ± 0.015	1.067 ± 0.0085	1.07 ± 0.04	1.07 ± 0.026	1.041 ± 0.0068	1.09 ± 0.019	1.075 ± 0.0046	0.874 ± 0.072	0.027 ± 0.001	0.0297 ± 0.00058	0.022 ± 0.001	0.0237 ± 0.0021	0.0237 ± 0.0011
NCIH441 LUNG	1.02 ± 0.05	1.04 ± 0.066	1.03 ± 0.052	1 ± 0.071	1.05 ± 0.077	0.924 ± 0.11	0.956 ± 0.16	0.863 ± 0.11	1.03 ± 0.16	0.859 ± 0.11	0.571 ± 0.057	0.499 ± 0.041	0.502 ± 0.03	0.507 ± 0.022	0.36 ± 0.028	0.228 ± 0.01
SNU475 LIVER	1.03 ± 0.034	0.903 ± 0.024	1 ± 0.039	0.438 ± 0.011	1.01 ± 0.018	0.902 ± 0.016	0.974 ± 0.014	0.516 ± 0.02	1.03 ± 0.05	1.01 ± 0.065	0.587 ± 0.06	0.255 ± 0.026	0.2 ± 0.033	0.16 ± 0.0044	0.169 ± 0.0055	0.174 ± 0.018
SUM44 BREAST	0.963 ± 0.096	0.978 ± 0.08	1.06 ± 0.081	1.04 ± 0.058	1.13 ± 0.13	1.09 ± 0.1	1.03 ± 0.071	1.01 ± 0.1	0.797 ± 0.039	0.378 ± 0.025	0.163 ± 0.0069	0.166 ± 0.022	0.158 ± 0.0027	0.154 ± 0.013	0.162 ± 0.013	0.1503 ± 0.00058
HMT3552 BREAST	1.02 ± 0.073	1.02 ± 0.079	1.02 ± 0.013	1.03 ± 0.065	1.14 ± 0.031	1.23 ± 0.023	1.18 ± 0.053	1.24 ± 0.086	0.781	0.352	0.14	0.192	0.221	0.205	0.121	0.11
NY BONE	0.886 ± 0.021	0.887 ± 0.029	0.943 ± 0.035	0.933 ± 0.023	0.93 ± 0.0093	1.01 ± 0.022	0.924 ± 0.026	0.884 ± 0.039	0.988 ± 0.025	0.851 ± 0.01	0.051 ± 0.0035	0.0633 ± 0.0051	0.17 ± 0.023	0.305 ± 0.0079	0.372 ± 0.0087	0.298 ± 0.03
NOS1 BONE	1.18 ± 0.11	1 ± 0.043	1.11 ± 0.069	1.1 ± 0.2	1.04 ± 0.062	1.16 ± 0.086	0.972 ± 0.073	1.03 ± 0.027	1.01 ± 0.12	0.839 ± 0.089	0.338 ± 0.056	0.296 ± 0.046	0.341 ± 0.074	0.387 ± 0.002	0.334 ± 0.034	0.328 ± 0.02
MDAMB361 BREAST	0.907 ± 0.073	0.81 ± 0.075	0.935 ± 0.068	0.874 ± 0.074	0.831 ± 0.14	0.806 ± 0.074	0.921 ± 0.085	0.831 ± 0.077	0.674 ± 0.046	0.617 ± 0.026	0.578 ± 0.051	0.637 ± 0.0066	0.565 ± 0.026	0.517 ± 0.013	0.245 ± 0.0072	0.21 ± 0.028
HOS BONE	1.007 ± 0.0093	0.9937 ± 0.0011	1.01 ± 0.017	0.982 ± 0.0062	1.05 ± 0.022	1.05 ± 0.021	1.05 ± 0.017	1.015 ± 0.0067	1.02 ± 0.015	0.979 ± 0.008	0.203 ± 0.044	0.031 ± 0.0027	0.0337 ± 0.0029	0.023 ± 0.001	0.018 ± 0.001	0.0207 ± 0.00058
COLO320DM LARGE INTESTINE	1.18 ± 0.14	0.995 ± 0.087	1.13 ± 0.022	0.533 ± 0.021	1.13 ± 0.086	1.042 ± 0.0052	1.12 ± 0.057	0.754 ± 0.052	1.17 ± 0.018	1.08 ± 0.015	1.09 ± 0.051	0.836 ± 0.034	0.191 ± 0.019	0.0987 ± 0.0025	0.105 ± 0.011	0.109 ± 0.0025
